Data reported in patent US20140364417A1, “METHOD OF TREATING ATRIAL FIBRILLATION” (Gilead Sciences, Inc., priority 2013, published 2014).
Where “and” joins values, the source holds several entries; their conditions need not be identical. Identical values can stand only once. Entries after “also recorded” stand apart in the source; their conditions may differ.

How the values were obtained:
[1] = tested on: Guinea Pig Isolated Hearts; assay: S-H interval (AV nodal conduction) in guinea pig isolated, Langendorff-perfused paced hearts; details: for second-degree AV block (dropped beats): isolated paced hearts, drug alone; for increase in the S-H interval compared to control (no drug): ivabradine 0.1 μM, ranolazine 2 μM, alone or combined, pacing rate of 4 and 5 Hz, FIG. 1
Source text: To test the combined effects of ranolazine and ivabradine on AV conduction, the following experimental procedures were employed.
Guinea pigs (Hartley) of either sex weighing 300-350 g were anesthetized by inhalation of isoflurane. The chest of a guinea pig was cut open, and the heart was quickly removed and rinsed in ice-cold modified Krebs-Henseleit (K-H) solution. The contents of the modified K-H solution were (in mM) 117.9 NaCl, 4.8 KCl, 2.5 CaCl2, 1.18 MgSO4, 1.2 KH2PO4, 0.5 Na2 EDTA, 0.14 ascorbic acid, 5.5 dextrose, 2.0 pyruvic acid (sodium salt), and 25 NaHCO3. The K-H solution was continuously gassed with 95% O2-5% CO2, and the pH was adjusted to a value of 7.4.
To perfuse the heart by the Langendorff method, the transected aorta was slid onto a glass cannula and secured by a ligature. Retrograde perfusion of the aorta was initiated immediately at a constant flow of 10 mL/min with modified K-H solution warmed to 37.0±0.5° C. A side port in the cannula was used to connect the perfusion line to a pressure transducer (AD Instruments, Australia) for measurement of coronary perfusion pressure (CPP). To facilitate the exit of fluid from the left ventricle, the leaflets of the mitral valve were trimmed with fine spring-handled scissors. Hearts were allowed to beat spontaneously in experiments to measure heart rate, or paced at a constant rate using external electrodes, in experiments to measure AV conduction time. After completion of dissection and instrumentation, stimulus-to-H is bundle (S-H) interval was monitored continuously. Each heart was allowed to equilibrate for 20-40 min before the administration of drug. Experimental interventions were always preceded and followed by control measurements.
To facilitate the recording of a drug effect on the S-H interval, parts of the left and right atrial tissues, including the region of the sinoatrial node, were removed, both to decrease the spontaneous heart rate and to expose the atrial septum for electrode placement. A bipolar Teflon-coated electrode was placed in the wall of the intra-atrial septum to pace the heart. […] Stimuli were provided by a stimulation generator (model 48, Grass Instruments, W. Warwick, R I) and delivered to the heart through a stimulus isolation unit as square wave pulses of 3 msec duration and at least twice the threshold intensity.
A His bundle electrogram was recorded using a Teflon-coated unipolar electrode placed in the right side of the interatrial septum adjacent to the AV junction. […]
Ivabradine (Iva), ranolazine (Ran) or the combination thereof was infused to the hearts. Each concentration of Iva was infused for about 20 min to allow a steady-state response to be recorded, whereas each concentration of ranolazine was infused for 10 min to allow a steady-state response to be recorded. […]

[2] = tested on: Acetylcholine Mediated AF Model in Pigs; assay: Acetylcholine mediated AF model in pigs: dominant frequency, ventricular rate, arterial blood pressure during AF; format: in vivo, pig; details: for effect on arterial blood pressure during AF: FIG. 3 and FIG. 4; for effect on dominant frequency of atrial fibrillation / effect on ventricular rate during atrial fibrillation: ivabradine 0.25 mg/kg i.v. bolus; for effect on dominant frequency of atrial fibrillation: ranolazine 2.4 mg/kg bolus + 0.135 mg/kg/min; for effect on dominant frequency of atrial fibrillation / dominant frequency of AF after drug: FIG. 8; for effect on ventricular rate during atrial fibrillation: FIG. 9; for ventricular rate during AF after drug / reduction of ventricular rate during AF: ivabradine 0.25 mg/kg; for ventricular rate during AF after drug: before drug 269.7±6.2 (ivabradine) and 227.3±14.7 (ranolazine, combination); for dominant frequency of AF after drug: series with ivabradine 0.25 mg/kg, baseline 10.3±1.4 (ivabradine) and 9.0±0.8 (ranolazine, combination); for reduction of ventricular rate during AF: alone or shortly after ranolazine
Method: Data were gathered from male Yorkshire pigs (n=16) weighing 35±2 kg (mean±SEM). The animals were preanesthetized with telazol (4.7 mg/kg, intramuscularly) and then anesthetized with alpha-chloralose (100 mg/kg, i.v., bolus followed by 40 mg/kg/h, i.v., continuous infusion). The animals were intubated and ventilation was maintained between 10-16 breaths/min with volumes between 400-500 mL. Vital signs including core body temperature, heart rate, and oxygen saturation were continuously monitored.
The right and left femoral veins were cannulated with 7Fr introducer sheaths using the Seldinger technique to insert catheters in the right atrial (RA) appendage for pacing and for positioning the intrapericardial catheter. Arterial blood pressure was continuously monitored from a femoral arterial sheath, and intravenous fluids were administered through the ear vein. The electrocardiogram (ECG) was recorded with a Prucka Cardiolab workstation (GE Medical Systems, Milwaukee, Wis.) from atrial and ventricular sites.
Ranolazine was given as a 2.4 mg/kg, i.v., bolus followed by continuous infusion of 0.135 mg/kg/min, i.v.
A nonsteerable, quadripolar electrode catheter (Bard Electrophysiology, Lowell Mass.) was placed in the right atrium (RA) via the femoral vein and a second quadripolar electrode catheter in the right ventricle via the jugular vein. A bipolar electrode was placed in the non-coronary cusp of the aorta through the left carotid artery to record the His bundle electrogram. A pigtail catheter was inserted in the left ventricle via the left femoral artery to record and calculate contractility [left ventricular dP/dt]. Transatrial access was employed to deliver acetylcholine (ACh) into the pericardial space. Specifically, a small puncture was made in the RA appendage with the stiff end of a coronary angioplasty guidewire (0.014-inch Wizdom guidewire, Cordis, Miami, Fla., USA) placed within the lumen of a soft infusion catheter (0.038-inch SOS straight-tip, open-ended angiographic guidewire, Bard Electrophysiology). This wire-within-wire system was advanced as a unit into an 8Fr multipurpose guide catheter (MP2, Boston Scientific, Boston Mass.) previously positioned in the RA appendage via a femoral vein under fluoroscopic guidance and into the pericardial space. The infusion catheter was left in the pericardial space for delivery of ACh and the inner guidewire was removed. Conformation of the infusion catheter on fluoroscopy to the curvature of the heart verified its location within the pericardial space. All of the pericardial fluid was then aspirated with the infusion catheter. Intrapericardial access is associated with a hematocrit <2%, indicating minimum trauma from the atrial puncture (Kumar et al., J Cardiovasc Electrophysiol 2009; 20:796-802). The presence of acetylcholinesterase can rapidly degrade ACh and prevent a sustained response to this neurotransmitter.
Atrial fibrillation (AF) was defined as an irregular atrial rhythm with an average cycle length <150 msec at all atrial sites, whereas atrial flutter was defined as a regular atrial rhythm with fixed cycle length >150 msec at all atrial sites. After baseline electrical testing was performed, AF initiation was attempted by decremental burst pacing at each atrial site down to loss of 1:1 capture. ACh (1 mL of 100 mM solution) along with a 1-mL saline flush was injected into the pericardial space via the transatrial infusion catheter. […] After 5 minutes of AF, the pericardial space was lavaged with saline (20 mL) via the transatrial pericardial catheter. At the end of lavage, no further pericardial fluid could be removed. Lavage was performed after 5 minutes of AF in order to minimize the mild systemic hypotension that was occasionally associated with ACh administration. The time to spontaneous termination of AF was recorded.
Dominant frequency of AF was analyzed during the 6th minute after AF initiation using the intracardiac electrograms from the right atrial appendage. […]

Compound | second-degree AV block (dropped beats) [1] | increase in the S-H interval compared to control (no drug) [1] | change in arterial blood pressure during AF versus control (Δ Control/drug) ([2]; FIG. 3) | effect on arterial blood pressure during AF [2] | effect on dominant frequency of atrial fibrillation [2] | effect on ventricular rate during atrial fibrillation [2] | ventricular rate during AF after drug [2] | dominant frequency of AF after drug [2] | reduction of ventricular rate during AF [2] | reduction of ventricular rate during AF ([2]; 30 min after drug infusion)
COc1ccccc1OCC(O)CN1CCN(CC(=O)Nc2c(C)cccc2C)CC1 (racemic) [ranolazine, (±)-N-(2,6-dimethylphenyl)-4-[2-hydroxy-3-(2-methoxyphenoxy)-propyl]-1-piperazineacetamide] | without causing second-degree AV block | small but significant increase | 3.36 mmHg | Neither ivabradine (FIG. 4) nor ranolazine (FIG. 3) given alone improves; also recorded: no significant improvement | neither drug alone was effective | not reduced; also recorded: did not | 197.1±17.4 beats/min | 7.8±0.9 Hz | – | –
COc1cc2c(cc1OC)CC(=O)N(CCCN(C)C[C@H]1Cc3cc(OC)c(OC)cc31)CC2 [ivabradine, 3-{3-[{[(7S)-3,4-dimethoxybicyclo[4.2.0]octa-1,3,5-trien-7-yl]methyll}-(methyl)amino]propyl}-7,8-dimethoxy-1,3,4,5-tetrahydro-2H-3-benzapenin-2-one] | without causing second-degree AV block | small but significant increase | – | Neither ivabradine (FIG. 4) nor ranolazine (FIG. 3) given alone improves; also recorded: small, not significant decrease | neither drug alone was effective | lowered ventricular rate | 247.2±9.5 beats/min | 9±0.7 Hz | 9% | 22.5±6.0 beats/min and 22.53±6.0 beats/min
